Reference: patent publication US11306078B2, “Piperidine CXCR7 receptor modulators” (IDORSIA PHARMACEUTICALS LTD., priority 2016, dated 2022)
pIC50: −log10 of the molar value.

What follows are compounds tested against human chemokine receptor CXCR7 (Homo sapiens (Human), UniProt P25106) (assay: Tango CXCR7-bla U2OS beta-arrestin recruitment assay (beta-lactamase reporter, FRET), antagonism of CXCL12/SDF1-α). Conditions: antagonistic effect on CXCR7; Tango CXCR7-bla U2OS cells, CXCL12/SDF1-α at its EC80.
Type: cell-based
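Note: compounds preincubated 15 min before CXCL12 addition, then 22 h at 37 °C, FRET emission ratio read with CCF4-AM substrate after 2 h.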

Chain of human chemokine receptor CXCR7 (P25106 whole entry): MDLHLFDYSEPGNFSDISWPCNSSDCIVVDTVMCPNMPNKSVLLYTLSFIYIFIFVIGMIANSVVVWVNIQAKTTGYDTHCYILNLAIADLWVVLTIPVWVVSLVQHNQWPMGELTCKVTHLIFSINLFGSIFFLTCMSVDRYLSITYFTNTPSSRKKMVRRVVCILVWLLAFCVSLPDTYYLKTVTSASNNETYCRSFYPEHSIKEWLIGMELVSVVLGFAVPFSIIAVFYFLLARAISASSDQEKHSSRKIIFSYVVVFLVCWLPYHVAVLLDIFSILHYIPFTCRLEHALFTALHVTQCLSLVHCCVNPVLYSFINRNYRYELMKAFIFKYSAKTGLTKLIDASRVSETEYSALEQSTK

**Q.** How did the pIC50 turn out when `O=C(N[C@H]1CCN(CC2CC2)C[C@@H]1C(=O)NC1(c2ncccn2)CC1)c1cc(-c2ccc(F)cc2F)ns1` [Example 7.014, (3S,4S)-1-Cyclopropylmethyl-4-{[3-(2,4-difluoro-phenyl)-isothiazole-5-carbonyl]-amino}-piperidine-3-carboxylic acid (1-pyrimidin-2-yl-cyclopropyl)-amide] was run?
**A.** The pIC50 was 6.20.

**Q.** `O=C(N[C@H]1CCN(CC2CC2)C[C@@H]1C(=O)NC1(c2ncccn2)CC1)c1cc(-c2ccc(F)cc2F)sn1` [Example 7.015, (3S,4S)-1-Cyclopropylmethyl-4-{[5-(2,4-difluoro-phenyl)-isothiazole-3-carbonyl]-amino}-piperidine-3-carboxylic acid (1-pyrimidin-2-yl-cyclopropyl)-amide] was tested. Which pIC50 did it give?
**A.** Its pIC50 is 6.70.

**Q.** With `O=C(N[C@H]1CCN(CC2CC2)C[C@@H]1C(=O)NC1(c2ncccn2)CC1)c1nnc(-c2ccc(F)cc2F)s1` [Example 7.016, (3S,4S)-1-Cyclopropylmethyl-4-{[5-(2,4-difluoro-phenyl)-[1,3,4]thiadiazole-2-carbonyl]-amino}-piperidine-3-carboxylic acid (1-pyrimidin-2-yl-cyclopropyl)-amide] as the compound, how does the pIC50 read?
**A.** The pIC50 was 8.70.

**Q.** How did the pIC50 turn out when “(3R*,4R*)-1-Cyclohexyl-4-{[1-(2,4-difluoro-phenyl)-1H-[1,2,3]triazole-4-carbonyl]-amino}-piperidine-3-carboxylic acid ((1R*,2S*)-2-phenyl-cyclopropyl)-amide and (3R*,4R*)-1-Cyclohexyl-4-{[1-(2,4-difluoro-phenyl)-1H-[1,2,3]triazole-4-carbonyl]-amino}-piperidine-3-carboxylic acid ((1S*,2R*)-2-phenyl-cyclopropyl)-amide [Example 1.145]” was run?
**A.** The pIC50 was 6.44.

**Q.** “(3R*,4R*)-1-Cyclohexyl-4-{[3-(2,4-difluoro-phenyl)-isoxazole-5-carbonyl]-amino}-piperidine-3-carboxylic acid ((1S*,2R)-2-phenyl-cyclopropyl)-amide and (3R*,4R*)-1-Cyclohexyl-4-{[3-(2,4-difluoro-phenyl)-isoxazole-5-carbonyl]-amino}-piperidine-3-carboxylic acid ((1R*,2S*)-2-phenyl-cyclopropyl)-amide [Example 1.147]” was tested. Which pIC50 did it give?
**A.** The pIC50 was 6.35.

**Q.** With “(3R*,4R*)-1-Cyclopentyl-4-{[1-(2,4-difluoro-phenyl)-1H-[1,2,3]triazole-4-carbonyl]-amino}-piperidine-3-carboxylic acid ((1S*,2R*)-2-phenyl-cyclopropyl)-amide and (3R*,4R*)-1-Cyclopentyl-4-{[1-(2,4-difluoro-phenyl)-1H-[1,2,3]triazole-4-carbonyl]-amino}-piperidine-3-carboxylic acid ((1R*,2S*)-2-phenyl-cyclopropyl)-amide [Example 1.146]” as the compound, how does the pIC50 read?
**A.** Its pIC50 is 6.04.

**Q.** “(3R*,4R*)-1-Cyclopentyl-4-{[3-(2,4-difluoro-phenyl)-isoxazole-5-carbonyl]-amino}-piperidine-3-carboxylic acid ((1S*,2R*)-2-phenyl-cyclopropyl)-amide and (3R*,4R*)-1-Cyclopentyl-4-{[3-(2,4-difluoro-phenyl)-isoxazole-5-carbonyl]-amino}-piperidine-3-carboxylic acid ((1R*,2S*)-2-phenyl-cyclopropyl)-amide [Example 1.148]” was tested. Which pIC50 did it give?
**A.** Its pIC50 is 6.11.

**Q.** With “(3R*,4R*)-1-Cyclopropylmethyl-4-{[3-(2,4-difluoro-phenyl)-isoxazole-5-carbonyl]-amino}-piperidine-3-carboxylic acid ((1S*,2R*)-2-phenyl-cyclopropyl)-amide and (3R*,4R*)-1-Cyclopropylmethyl-4-{[3-(2,4-difluoro-phenyl)-isoxazole-5-carbonyl]-amino}-piperidine-3-carboxylic acid ((1R*,2S*)-2-phenyl-cyclopropyl)-amide [Example 1.164]” as the compound, how does the pIC50 read?
**A.** Its pIC50 is 6.57.

**Q.** With “rac-(3R*,4R*)-1-Cyclohexyl-4-{[5-(2-difluoro-phenyl)-oxazole-2-carbonyl]-amino}-piperidine-3-carboxylic acid (1-pyridin-2-yl-cyclopropyl)-amide [Example 3.011]” as the compound, how does the pIC50 read?
**A.** Its pIC50 is 7.66.

Same assay, conditions: antagonistic effect on CXCR7; Tango CXCR7-bla U2OS cells; CXCL12/SDF1-α at its EC80; geometric mean

**Q.** How did the pIC50 turn out when `O=C(N[C@H]1CCN(CC2CC2)C[C@@H]1C(=O)NC1(c2ncccn2)CC1)c1cc(-c2ccccc2)on1` [Reference Example 3, (3S,4S)-1-Cyclopropylmethyl-4-[(5-phenyl-isoxazole-3-carbonyl)-amino]-piperidine-3-carboxylic Acid (1-pyrimidin-2-yl-cyclopropyl)-amide, reference compound] was run?
**A.** Its pIC50 is 5.88.
